Results taken from patent US10683273B2, “Compounds as DNA probes, methods and applications thereof” (JAWAHARLAL NEHRU CENTRE FOR ADVANCED SCIENTIFIC RESEARCH, priority 2015, dated 2020).
pIC50: −log10 of the molar value. Like-named read-outs stand apart in the source and are kept apart here.

Experiments:
MCF-7 cells = experiment: Photostability assay by confocal fluorescence microscopy; type: cell-based; conditions: 2 μM
Procedure: MCF-7 Cells are propagated on 20 mm cover slips in a 6-well plate in DMEM medium supplemented with 10% fetal bovine serum at about 37° C. in a humidified atmosphere containing 5% CO2 till 80% confluency is achieved. Cells are incubated for a duration of about 60 min with probe QCy-DT (resuspended in Mili-Q water) at 2 μM concentration in a humidified CO2 incubator at about 37° C. Following treatment, the photostability of QCy-DT is measured by continuous scanning using OLYMPUS FV1000 confocal fluorescence microscope, under 568 nm line of an Argon ion laser for different time durations of about 10 sec, 120 sec and 300 sec. Olympus Fluoview software is used to quantitatively investigate the intensity of signals of QCy-DT at zero time points and after photo bleaching. The data is plotted with mean and standard error.

[1] = test system: single-stranded (ss) DNAs; experiment: Switch-on NIR-fluorescence enhancement with DNA; type: binding; conditions: ssDNAs
Procedure: (§1) All the chemicals, reagents, single-stranded oligos (dA20, dT20, dG20, dC20), self-complementary oligos {d(ATAT)5, (D1)mix, Drew-AT, Calf-Thymus DNA (CT-DNA), (DM1, DM2, DM3, DM4, DM5, DM6 and DM7)}, RNA, were purchased from Sigma-Aldrich. ^1H and ^13C NMR spectra were recorded on a Bruker AV-400 MHz spectrometer with chemical shifts reported as parts per million (ppm) (in DMSO-d6, tetramethylsilane as an internal standard) at 20° C. UV-vis absorption and emission spectra were measured in quartz cuvettes of 1 cm path length. High resolution mass spectra (HRMS) were obtained on Agilent Technologies 6538 UHD Accurate-Mass Q-TOF LC/MS spectrometer. All biophysical studies (UV-vis, fluorescence and Cirular dichroism) are carried out at the concentration 0-5 μM of probe, volume=500 μL, temperature=25° C. and time of incubation=2 minutes. HeLa cells and MCF7 cells used in the biological studies are obtained from “Molecular reproduction, development and genetics lab, Indian institute of science, Bangalore, India”
(§2) Stock solutions of QCy-DT are prepared in double-distilled (dd) water in the order of 10^−3 M and stored at about −10° C. DNA stock solutions are prepared by dissolving oligo samples in double-distilled (dd) water in the order of 10^−4 M. Solutions of DNA duplexes are prepared in Tris-HCl (100 mM, pH=7.4) buffer solution by mixing complementary DNA strands in equimolar concentration. This solution is then subjected to annealing by heating up to about 85° C. for about 15 minutes, subsequently cooled to room temperature for about 7 hours and stored in the refrigerator (about 4° C.) for about 4 hours.
(§3) The UV-vis absorption and emission spectra are recorded on Agilent Technologies Cary series UV-vis-NIR absorbance and Cary eclipse fluorescence spectrophotometers, respectively. Thermal denaturation (UV-melting) studies are carried out on Cary 5000 UV-vis-NIR spectrophotometer equipped with Cary temperature controller in the range of 10° C. to 90° C. with a ramp rate of 1° C./min. The variable temperature/wavelength mode is used. Absorption is monitored at 260 nm with regular 5° C. intervals. Melting temperatures (Tm) of DNA samples are calculated from the first derivatives of the absorption vs. temperature curves (thermal denaturation or melting curves) obtained by monitoring at 260 nm.
(§4) For this, poly AT-duplexes such as (A-T)20, self-complementary d(ATAT)5, Drew-AT (14 base pair self-complementary sequence with 6AT-base pairs in central core), poly GC-duplex (G-C)20, (D1)mix, which is a 16 base pair long self-complementary duplex and CT-DNA as mixed AT/GC duplexes is chosen (Table 2). […] QCy-DT experience hydrophobic environment upon binding to minor groove of AT-rich duplex DNA which prevents aromatic π-stacking interactions with base pairs and other molecules of the probe that led to the hyperchromicity in the absorbance maximum of QCy-DT. […] Further, the absorption and emission properties of QCy-DT in the presence of poly AT- and GC-duplexes are studied. […] Further, we also studied the emission behavior of QCy-DT in presence of CT-DNA, (D1)mix, single-stranded (ss) DNAs and RNA. […] To ascertain the switch-on behavior of QCy-DT in the presence of AT-rich DNA duplex, viscosity measurements are performed by increasing the glycerol content in buffer solution. […] Consequently, the observed strong fluorescence enhancement in the presence of AT-rich DNA duplexes is the result of restriction of intramolecular rotation of probe QCy-DT in the constrained environments of DNA, which also facilitates the desolvation (water molecules) around QCy-DT in the hydrophobic environment of DNA duplex (FIG. 1c).

Drew-AT = experiment: Switch-on NIR-fluorescence enhancement with DNA; type: binding
Procedure: as §1, §2, §3, §4

(A-T)20 = experiment: Switch-on NIR-fluorescence enhancement with DNA; type: binding
Procedure: as §1, §2, §3, §4

(G-C)20 = experiment: Switch-on NIR-fluorescence enhancement with DNA; type: binding; conditions: QCy-DT 2 μM, (G-C)20 4 μM, Tris-HCl
Procedure: as §1, §2, §3, §4

(D1)mix = experiment: Switch-on NIR-fluorescence enhancement with DNA; type: binding
Procedure: as §1, §2, §3, §4

P. falciparum = experiment: IC50 determination in malaria parasites; type: cell-based, Plasmodium falciparum; conditions: for pIC50: Plasmodium falciparum
Procedure: P. falciparum strain 3D7 is cultured. Briefly, malaria parasites are cultured in human erythrocytes in T75 flasks with RPMI 1640 (Gibco) supplemented with 10 μg/mL gentamicin (Sigma), 50 μg/mL ampicillin, 0.2% NaHCO3 (Sigma), 0.5% albumax (Invitrogen) and Hypoxanthine (27 mg/L). The culture is maintained under standard conditions (37° C. in 90% nitrogen, 5% CO2, and 5% O2). For synchronization of the parasites, ring-staged parasites are treated with 5% sorbitol at 37° C. for about 5-10 min, followed by washing with pre-warmed incomplete medium twice, and placed back in complete medium. QCy-DT probe (resuspended in Mili-Q water) is added to parasites (25±2 hpi) at a final concentration of 0.5 μM and the parasites are incubated for 30 min at 37° C. Following treatment fluorescence imaging of the parasites is performed using Carl Zeiss AXIO Imager Z1 and the software used for image capturing was AxioVision Rel. 4.8. To determine the IC50 value of QCy-DT against P. falciparum, parasites are synchronized in ring stage (˜12±2 h) and parasitemia is maintained at ˜1%, followed by treatment with 0, 0.5, 1, 2 and 4 μM of QCy-DT at early trophozoite stage (˜20±2 h). After about 40 hours of the QCy-DT treatment, Geimsa stained slides are prepared, and parasitemia is counted. At least six homogenous microscopic fields are counted for each treatment, and each experiment is done in triplicates. The graphs are plotted for the percentage of parasitemia (at 0 time point and at 40 hours after incubation with QCy-DT) against QCy-DT concentration, with mean and standard error.

remainder fluorescence intensity (MCF-7 cells; MCF-7, 120-second argon ion laser excitation at 568 nm): ~80%
fluorescent signal intensity (MCF-7 cells; MCF-7, 300 sec excitation at 568 nm): ~50%
pIC50 (P. falciparum; against malarial parasites, as printed in the description, read-out: inhibitory concentration (IC50)): > 5.40
pIC50 (P. falciparum; early trophozoite stage, 40 h treatment, parasitemia count, read-out: IC50): > 5.40
SMILES: C[n+]1c(/C=C/c2ccc(O)c(/C=C/c3sc4ccccc4[n+]3C)c2)sc2ccccc21 [QCy-DT, quinone cyanine-dithiazole]
fluorescence enhancement [1]: ~2 fold
fluorescence enhancement (Drew-AT; QCy-DT 2 μM, Drew-AT 4 μM, λem=650 nm, vs probe alone): ~200 fold
fluorescence enhancement with 5′-AAATTT-3′ core, higher than 5′-AATT-3′ core (Drew-AT; ratio 5′-AAATTT-3′ / 5′-AATT-3′): ~4 fold
fluorescence enhancement ((A-T)20; QCy-DT 2 μM, (A-T)20 4 μM, Tris-HCl): ~250 fold
difference in fluorescence enhancement, (A-T)20 compared to d(ATAT)5 ((A-T)20; ratio (A-T)20 / d(ATAT)5): ~4 fold
fluorescence enhancement ((G-C)20): 8 fold
fluorescence enhancement ((D1)mix): ~55 fold
parasite stage progression (P. falciparum; 8 μM): arrested in the trophozoite stage
